Results on twelve molecules are retold here after patent US7189750B2, “Thiazole-based nitric oxide donors having at least two thiazole moieties and uses thereof” (priority 2004, dated 2007).

Holding throughout (format): cell-based
For experiment [1], the system named is c-GMP in slices of thoracic aorta of rats. The experiment can be described thus: Cyclic-GMP measurement in aortic rat tissue (radioimmunoassay). The conditions noted are these: for levels of cGMP as compared with GTN: isolated rat aorta; for cGMP Post-infusion / cGMP Pre-infusion: rat aorta; for cGMP Post-infusion: post-infusion (repeated treatment). The procedure:
GTN (10^−6 M) was added to the chamber and, 1 minute after exposure to the drug, rings (usually 3–5) were taken, wrapped with aluminum foil and immediately frozen in liquid nitrogen for storage. Control sample group was treated with the vehicle solution only. At the time of analysis, rings were thawed, blotted over a dry gauzed and weighted. A known weight of tissue was homogenized in 2 ml ice-cold modified Hank's balanced salt solution containing (in gram/liter) NaCl 8; KCl 0.4; glucose 1; KH2PO4 0.06; Na2HPO4 0.047; Phenol red 0.017 and further containing 25 mM EDTA (disodium salt). The homogenate was centrifuged at 4000 g (force units) for 10 minutes at 2–4° C. and the supernatant was thereafter transferred into fresh pre-cooled test tube containing 1 ml of acetonitrile. The tubes were vortex mixed for a few seconds and subsequently centrifuged at 4000 g for 5 minutes at 2–4° C., to remove the precipitated protein. Each supernatant was transferred into a clean test tube and evaporated to dryness under a stream of nitrogen at 55° C. The dry residue was reconstituted with 10 volumes of Tris-EDTA buffer pH 7.5 (0.05 M Tris containing 4 mM EDTA). Aliquots of 100 μl of the reconstituted solution in duplicate were used for c-GMP measurements using Amersham RIA kit, as is described in Haj-Yehia & Benet [Pharmacology, 1995, 273, 1, pp. 94–100]. Standard curves were plotted with six concentrations (0, 0.5, 1, 2, 4 and 8 pmoles of c-GMP per tube).
The NO-tolerance effect of GTN and NO-donor compounds according to the present invention was measured by following the production of c-GMP in slices of thoracic aorta of rats. Thus, the production of c-GMP was measured as described in the methods section above for the reference NO-donor compound GTN, and for the NO-donors of the present invention Pet-2, Pet-3, Pet-7, Pet-8, Pet-10, Pet-12, Pet-24, Pet-59, Pet-147, Pet-149, Pet-152, Pet-154 and Pet-155.

Experiment [2] has as its system isolated rat aorta. The experiment can be described thus: In vitro vasorelaxation of epinephrine-contracted rat aortic rings (CCRC). To be noted: for vasorelaxation effect as compared with glyceryltrinitrate: isolated rat aorta, 1 μM epinephrine. An excerpt:
Male Sprague Dawley rats were anaesthetized using intraperitoneal injection of ketamine and xylazine (50 and 10 milligram per kilogram, respectively) and the thoracic aorta, the large upper portion of the descending aorta, starting at the caudal border of the chest bone, was removed thereafter, while carefully removing the paraadventetial tissue surrounding the vessel. Aortae were cut into rings of 4–5 millimeters and mounted onto the tissue path. The path buffer (Krebs-bicrbonate) was constantly gassed with carbogen and maintained at 37° C. The rings were preloaded under 2 g tension and equilibrated for 90 minutes, while refreshing the buffer every 15 minutes. After stabilization, the rings were contracted with epinephrine (1 μM). Cumulative Concentration-Response Curves (CCRC) were measured for the vasorelaxing effect induced by adding various concentrations, ranging from 10^−10 M to 10^−5 M of Pet-2, Pet-3, Pet-7, Pet-8, Pet-12, Pet-24, Pet-43, Pet-59, Pet-147, Pet-152 and Pet-154, and glyceryltrinitrate (GTN), according to the procedure described in Feelich et al., Molecular Pharmacology, 56:243–253 (1999). The vehicle, which was used for this experiment was water:ethanol:propyleneglycol at proportional ratio of 1:1:1.
The vasorelaxing effect of the thiazole-derived NO-donors according to the present invention was measured on slices of thoracic aorta of rats contracted with epinephrine, as described hereinabove.

For experiment [3], the system named is isolated rat aorta. Nature of the experiment: In vitro induction of tolerance and cross-tolerance: vasorelaxation of pre-exposed rat aortic rings. To be noted: for EC50: Rattus norvegicus; for tolerance induction in vitro: rings pre-treated with epinephrine and then with the same compound (0.44 mM). As for the experimental part: Aortic rings were prepared as described hereinabove, and were exposed to 0.44 mM GTN (vehicle was water:ethanol:propyleneglycol at proportional ratio of 1:1:1) for 1 hour before CCRC construction, to thereby induce tolerance to nitroglycerine. At the end of the tolerance induction period, rings were thrice washed with the path buffer (Krebs-bicrbonate) every 15 minutes for the following hour and then CCRC for vasorelaxation on GTN-induced tolerance rings were constructed for GTN (pretreated versus untreated rings, FIG. 15), in order to verify the ability to induce and measure GTN tolerance induction in vitro
Attempted induction of tolerance to the NO-donating compounds of the present invention was performed under the same conditions as for GTN. Thus, in an exemplary experiment, rings were exposed to 0.44 mM solution of Pet-3 in the attempt to induce tolerance for Pet-3. CCRC were then measured for the vasorelaxing effect of Pet-3 on a group of rings which were pre-exposed to Pet-3 as to induce tolerance to Pet-3, and for an untreated control group. The above protocol was repeated with Pet-2, Pet-7, Pet-8, Pet-12, Pet-24, Pet-43, Pet-149 and Pet-152.
Cross-tolerance studies were conducted using the same technique described above for measuring vasorelaxation of aortic rings from rats. Two groups of aortic rings samples were pre-treated with GTN, then one group was measured for vasorelaxation by GTN and the second group for vasorelaxation by Pet-12, an exemplary NO-donor according to the present invention. For the opposite cross-tolerance studies, two groups of aortic rings samples were pre-treated with Pet-12, then one group was measured for vasorelaxation by GTN and the second group for vasorelaxation by Pet-12.

Setting [4] is: vasorelaxation, rat aortic rings contracted with 1 μM epinephrine, 10^−10 M to 10^−5 M, read-out: Concentration.
Setting [5] is: vasorelaxation, rat aortic rings contracted with 1 μM epinephrine, given as negative log value, read-out: EC50 (converted).
The mark [6] stands for this setting: vasorelaxation of rings pre-exposed to 0.44 mM of the same compound for 1 hour, given as negative log value, read-out: EC50 (converted).
[7] abbreviates: vasorelaxation of rings pre-exposed to 0.44 mM of the same compound for 1 hour, read-out: Concentration.
Where [8] appears, read: Rattus norvegicus, read-out: Concentration.

For `Cc1nc(NC(=O)[C@@H](C)c2ccc(CC(C)C)cc2)sc1CCO[N+](=O)[O-]` (stereo in doubt) [Pet-152, 2-(4-Isobutyl-phenyl)-N-[4-methyl-5-(2-nitrooxy-ethyl)-thiazol-2-yl]-propionamide], in experiment [1], the “levels of cGMP as compared with GTN” value is reported as “increased”. In addition, in the experiment on isolated rat aorta [2], the “vasorelaxation effect as compared with glyceryltrinitrate” value is “superior”. Besides, the EC50 in the experiment on isolated rat aorta [2] (setting [4]), in the experiment with isolated rat aorta [2] (setting [5]), in the experiment with isolated rat aorta [3] (setting [6]) and in the experiment with isolated rat aorta [3] (setting [7]) was 50.1 nM throughout.
Take `Cc1nc(C)c(CCO[N+](=O)[O-])s1` [Pet-3, 2,4-Dimethyl-5-(2-nitrooxy-ethyl)-thiazole]: the “levels of cGMP as compared with GTN” value in experiment [1] is “increased”. Moreover, the “cGMP Post-infusion” value in experiment [1] stood at 118 ± 10 pmol/g tissue. The “cGMP Pre-infusion” value in experiment [1] was 122 ± 14 pmol/g tissue. Also, the EC50 in the experiment with isolated rat aorta [2] (Rattus norvegicus) is 35.5 nM; with isolated rat aorta [2] (setting [8]), 35.5 nM; in the experiment with isolated rat aorta [3] (1 h), 50.1 nM; in the experiment with isolated rat aorta [3] (1 h, read-out: Concentration), 50.1 nM. In addition, the “vasorelaxation effect as compared with glyceryltrinitrate” value with isolated rat aorta [2] is reported as “superior”. In the experiment with isolated rat aorta [3], the “tolerance induction in vitro” value is listed as “absence of tolerance induction”.
With `Cc1nc(N(C)C)sc1CCO[N+](=O)[O-]` [Pet-7, Dimethyl-[4-methyl-5-(2-nitrooxy-ethyl)-thiazol-2-yl]-amine], the “levels of cGMP as compared with GTN” value in experiment [1] is listed as “increased”. Besides, the “cGMP Post-infusion” value in experiment [1] is listed as 123 ± 12 pmol/g tissue. Also, in experiment [1], the “cGMP Pre-infusion” value came out at 120 ± 12 pmol/g tissue. Besides, the “vasorelaxation effect as compared with glyceryltrinitrate” value in the experiment on isolated rat aorta [2] is recorded as 10 fold. The EC50 was 28.2 nM in the experiment with isolated rat aorta [2] (setting [4]), 28.2 nM with isolated rat aorta [2] (setting [5]), 35.5 nM in the experiment on isolated rat aorta [3] (setting [6]) and 50.1 nM with isolated rat aorta [3] (setting [7]). Moreover, in the experiment with isolated rat aorta [3], the “tolerance induction in vitro” value is listed as “absence of tolerance induction”.
For `Cc1nc(-c2ccccc2)sc1CCO[N+](=O)[O-]` [Pet-8, 4-Methyl-5-(2-nitrooxy-ethyl)-2-phenyl-thiazole], in experiment [1], the “levels of cGMP as compared with GTN” value is listed as “increased”. For the same molecule, the “cGMP Post-infusion” value in experiment [1] is reported as 136 ± 12 pmol/g tissue. In experiment [1], the “cGMP Pre-infusion” value stood at 133 ± 10 pmol/g tissue. The “vasorelaxation effect as compared with glyceryltrinitrate” value with isolated rat aorta [2] is recorded as “superior”. Besides, the EC50 with isolated rat aorta [2] (setting [4]) is 28.2 nM; with isolated rat aorta [2] (setting [5]), 20 nM; in the experiment on isolated rat aorta [3] (setting [6]) it was 25.1 nM; in the experiment on isolated rat aorta [3] (setting [7]), 25.1 nM.
With `Cc1nc(N)sc1CCO[N+](=O)[O-]` [Pet-10, 4-methyl-5-(2-nitrooxy-ethyl)-thiazole-2-ylamine], the “levels of cGMP as compared with GTN” value in experiment [1] is listed as “increased”.
For the molecule `CNc1cncc(-c2nc(C)c(CCO[N+](=O)[O-])s2)n1` [Pet-24, Methyl-{6-[4-methyl-5-(2-nitrooxy-ethyl)-thiazol-2-yl]-pyrazin-2-yl}-amine], in experiment [1], the “levels of cGMP as compared with GTN” value is reported as “increased”. In addition, the “cGMP Post-infusion” value in experiment [1] is reported as 112 ± 10 pmol/g tissue. Moreover, the “cGMP Pre-infusion” value in experiment [1] was determined as 115 ± 14 pmol/g tissue. Also, the EC50 in the experiment on isolated rat aorta [2] (setting [4]) is 200 nM; with isolated rat aorta [2] (setting [5]), 200 nM; in the experiment on isolated rat aorta [3] (setting [6]), 251 nM; in the experiment on isolated rat aorta [3] (setting [7]), 251 nM. The “tolerance induction in vitro” value in the experiment on isolated rat aorta [3] was “absence of tolerance induction”.
For the molecule `Cc1nc(Nc2nc(C)c(CCO[N+](=O)[O-])s2)sc1CCO[N+](=O)[O-]` [Pet-43, Bis-[4-methyl-5-(2-nitrooxy-ethyl)-thiazol-2-yl]-amine], the EC50 with isolated rat aorta [2] (Rattus norvegicus) was 158 nM; in the experiment on isolated rat aorta [2] (setting [8]), 159 nM; in the experiment on isolated rat aorta [3] (1 h), 251 nM; with isolated rat aorta [3] (1 h, read-out: Concentration) it was 251 nM. For the same molecule, the “vasorelaxation effect as compared with glyceryltrinitrate” value with isolated rat aorta [2] is recorded as “superior”. Further, in the experiment on isolated rat aorta [3], the “tolerance induction in vitro” value is listed as “absence of tolerance induction”.
`Cc1nc(-c2ccc(C(F)(F)F)cc2)sc1CCO[N+](=O)[O-]` [Pet-59, 4-Methyl-5-(2-nitrooxy-ethyl)-2-(4-trifluoromethyl-phenyl)-thiazole]: in experiment [1], the “levels of cGMP as compared with GTN” value is given as “increased”. In addition, the “vasorelaxation effect as compared with glyceryltrinitrate” value in the experiment with isolated rat aorta [2] is listed as “superior”. Moreover, the EC50 with isolated rat aorta [2] (setting [4]) and in the experiment on isolated rat aorta [2] (setting [5]) was 79.4 nM throughout.
For `CCNc1nc(C)c(CCO[N+](=O)[O-])s1` [Pet-147, Ethyl-[4-methyl-5-(2-nitrooxy-ethyl)-thiazol-2-yl]-amine], in experiment [1], the “levels of cGMP as compared with GTN” value was “increased”. Further, the EC50 in the experiment with isolated rat aorta [2] (setting [4]) and in the experiment with isolated rat aorta [2] (setting [5]) was 31.6 nM in each case.
Regarding `Cc1nc(Nc2cccc3ccccc23)sc1CCO[N+](=O)[O-]` [Pet-149, [4-Methyl-5-(2-nitrooxy-ethyl)-thiazol-2-yl]-naphthalen-1-yl-amine], in experiment [1], the “levels of cGMP as compared with GTN” value is “increased”, the “cGMP Post-infusion” value is on record as 115 ± 14 pmol/g tissue and the “cGMP Pre-infusion” value was found to be 112 ± 12 pmol/g tissue. In addition, the “vasorelaxation effect as compared with glyceryltrinitrate” value with isolated rat aorta [2] is given as “superior”. Besides, the EC50 with isolated rat aorta [3] (setting [6]) is 39.8 nM. In addition, the EC50 in the experiment on isolated rat aorta [3] (setting [7]) is 43.3 nM. In addition, the “tolerance induction in vitro” value in the experiment with isolated rat aorta [3] is on record as “absence of tolerance induction”.
For the molecule `Cc1nc(NC(=O)c2cccnc2)sc1CCO[N+](=O)[O-]` [Pet-154, N-[4-methyl-5-(2-nitrooxy-ethyl)-thiazol-2-yl]-nicotinamide], in experiment [1], the “levels of cGMP as compared with GTN” value is on record as “increased”. For the same molecule, the EC50 in the experiment with isolated rat aorta [2] (setting [4]), with isolated rat aorta [2] (setting [5]), in the experiment on isolated rat aorta [3] (setting [6]) and with isolated rat aorta [3] (setting [7]) was 39.8 nM throughout.
For `C=CCNc1nc(C)c(CCO[N+](=O)[O-])s1` [Pet-155, allyl-[4-methyl-5-(2-nitrooxy-ethyl)-thiazol-2-yl]-amine], the “levels of cGMP as compared with GTN” value in experiment [1] is “increased”. In the experiment with isolated rat aorta [2], the “vasorelaxation effect as compared with glyceryltrinitrate” value is listed as “superior”. The EC50 in the experiment on isolated rat aorta [3] (setting [6]) and in the experiment with isolated rat aorta [3] (setting [7]) was 50.1 nM throughout.
